Laboratory results as given in patent US8309056B2, “Method for determination of oxidative stress” (Keio University, priority 2006, dated 2012).

Assays:
[1] = system: glutathione biosynthesis pathway in the liver; experiment: Metabolites in liver of agent-administered mice vs control mice, measured by CE-TOFMS; type: in vivo
Method: Male mice fasted overnight were anesthetized by intraperitoneal injection of pentobarbital sodium (60 mg per Kg body weight). […] The liver (about 300 mg) harvested from mice was immediately plunged into 1 ml of methanol containing internal standards and homogenized to inactivate enzymes and stop increase in metabolism Then, 500 μl of pure water was added and 300 μl of the solution was collected. 200 μl of chloroform was added to the solution, which was then thoroughly mixed. The solution was centrifuged at 15000 rpm at 4° C. for 15 minutes. After left standing, the separated 300 μl-water-methanol phase was centrifugally filtered through an ultrafiltration filter (5 kDa cutoff) to remove proteins. The filtrate was lyophilized and 50 μl of […]® ultrapure water was added thereto prior to CE-MS (CE-TOFMS) analysis. Metabolites having a mass of 1000 or less were comprehensively measured using CE-TOFMS under measuring conditions for cationic metabolites and anionic metabolites. As a capillary, a fused silica capillary having an inner diameter of 50 μm, an outer diameter of 350 μm, and a total length of 100 cm was used. As a buffer, 1 M formic acid (pH is about 1.8) was used. Measurement was performed with an applied voltage of +30 kV and a capillary temperature of 20° C. A sample was injected at 50 mbar for 3 seconds using the pressure method. In TOFMS, the positive ion mode was employed and the ionization, fragmentor, skimmer, and Oct RFV voltages were set at 4 kV, 75 V, 50 V, and 125 V, respectively. Nitrogen was used as a drying gas, which was set at a temperature of 300° C. and a pressure of 10 psig. Methanol solution (50%) was used as a sheath liquid. To this solution, reserpine (m/z 609.2807) was added at 0.5 μM for mass calibration and the solution was delivered at 10μ/min. All the obtained data were automatically calibrated using the mass of reserpine (m/z 609.2807) and methanol adduct ion (m/z 83.0703). As a capillary, SMILE(+) capillary having an inner diameter of 50 μm, an outer diameter of 350 μm, and a total length of 100 cm was used. As a buffer, 50 mM ammonium acetate (pH 8.5) was used. Measurement was performed with an applied voltage of -30 kV and a capillary temperature of 20° C. A sample was injected at 50 mbar for 30 seconds using the pressure method. In TOFMS, the negative ion mode was employed and the ionization, fragmentor, skimmer, and Oct RFV voltage were set at 3.5 kV, 100 V, 50 V, and 200 V, respectively. Nitrogen was used as a drying gas, which was set at a temperature of 300° C. and a pressure of 10 psig. Ammonium acetate (5 mM) in 50% methanol solution was used as a sheath liquid. To this solution, 20 μM PIPES and 1 μM reserpine (m/z 609.2807) was added for mass calibration and was delivered at 10μ/min. All the obtained data were automatically calibrated using the mass of reserpine (m/z 609.2807), monovalent PIPES (m/z 301.0534), and divalent PIPES (m/z 150.0230). […] The extracts were comprehensively and quantitatively analyzed with a capillary electrophoresis-mass spectrometer (CE-MS) or the like. […] Ophthalmic acid preparation was obtained and compared with the unknown substance.

serum metabolites = experiment: Metabolites in serum of AAP-administered mice vs control mice, measured by CE-TOFMS; type: in vivo
Method: Male mice fasted overnight were anesthetized by intraperitoneal injection of pentobarbital sodium (60 mg per Kg body weight). […] Metabolites having a mass of 1000 or less were comprehensively measured using CE-TOFMS under measuring conditions for cationic metabolites and anionic metabolites. As a capillary, a fused silica capillary having an inner diameter of 50 μm, an outer diameter of 350 μm, and a total length of 100 cm was used. As a buffer, 1 M formic acid (pH is about 1.8) was used. Measurement was performed with an applied voltage of +30 kV and a capillary temperature of 20° C. A sample was injected at 50 mbar for 3 seconds using the pressure method. In TOFMS, the positive ion mode was employed and the ionization, fragmentor, skimmer, and Oct RFV voltages were set at 4 kV, 75 V, 50 V, and 125 V, respectively. Nitrogen was used as a drying gas, which was set at a temperature of 300° C. and a pressure of 10 psig. Methanol solution (50%) was used as a sheath liquid. To this solution, reserpine (m/z 609.2807) was added at 0.5 μM for mass calibration and the solution was delivered at 10μ/min. All the obtained data were automatically calibrated using the mass of reserpine (m/z 609.2807) and methanol adduct ion (m/z 83.0703). As a capillary, SMILE(+) capillary having an inner diameter of 50 μm, an outer diameter of 350 μm, and a total length of 100 cm was used. As a buffer, 50 mM ammonium acetate (pH 8.5) was used. Measurement was performed with an applied voltage of -30 kV and a capillary temperature of 20° C. A sample was injected at 50 mbar for 30 seconds using the pressure method. In TOFMS, the negative ion mode was employed and the ionization, fragmentor, skimmer, and Oct RFV voltage were set at 3.5 kV, 100 V, 50 V, and 200 V, respectively. Nitrogen was used as a drying gas, which was set at a temperature of 300° C. and a pressure of 10 psig. Ammonium acetate (5 mM) in 50% methanol solution was used as a sheath liquid. To this solution, 20 μM PIPES and 1 μM reserpine (m/z 609.2807) was added for mass calibration and was delivered at 10μ/min. […]

[2] = 2 hours after administration, vs control mice
[3] = at 1 and 2 hours after administration (time course)
[4] = time course 1-24 hours after administration

SMILES | GSH in liver [1, 2] | all the substances in the glutathione biosynthesis pathway in the liver [1, 2] | ophthalmic acid in liver [1, 2] | oxidized glutathione (GSSG) in liver [1, 2] | γ-Glu-2-aminobutyric acid (γ-Glu-2AB) in liver [1, 2] | GSH in liver [1, 3] | ophthalmic acid in liver [1, 3] | GSSH in liver [1, 4] | ophthalmic acid in serum (serum metabolites; [3]) | GSH in serum (serum metabolites; [4]) | GSSH in serum (serum metabolites; [4]) | γ-Glu-Cys in liver [1, 2]
CC(=O)Nc1ccc(O)cc1 [AAP, Acetaminophen] | Dramatically decreased | decrease | increase | Dramatically decreased | increase | rapidly decreased | dramatically increased | a behavior similar to that of GSH in liver | dramatically increased | not detected | a behavior similar to that of GSH in liver | 
CCCCS(=N)(=O)CCC(N)C(=O)O (stereo not drawn) [BSO, buthionine sulfoximine] | remarkably decreased |  | remarkably decreased |  | remarkably decreased |  |  |  |  |  |  | remarkably decreased
